From patent publication US20200270309A1, “MALEIMIDE GROUP-MODIFIED ANGIOGENESIS INHIBITOR HM-1 AND USE THEREOF” (NANJING ANJI BIOLOGICAL TECHNOLOGY CO., LTD, priority 2017, published 2020)
Marks after values point to notes of the source that are not given here. Peptide text beside a SMILES is read from it. * marks the point of attachment. X65 = O=C1C=CC(=O)N1c1cccc(CCCCCCCCCCCCC(=O)*)c1; X58 = O=C1C=CC(=O)N1c1cccc(CCCCCCCCCCCC(=O)*)c1; X74 = O=C1C=CC(=O)N1c1cccc(CCCCCCCCCCC(=O)*)c1; X64 = O=C1C=CC(=O)N1c1cccc(CCCCCCCCCC(=O)*)c1; X59 = O=C1C=CC(=O)N1c1cccc(CCCCCCCCC(=O)*)c1; X66 = O=C1C=CC(=O)N1c1cccc(CCCCCCCC(=O)*)c1; X54 = O=C1C=CC(=O)N1c1cccc(CCCCCCC(=O)*)c1; X71 = O=C1C=CC(=O)N1c1cccc(CCCCCC(=O)*)c1; X46 = O=C1C=CC(=O)N1c1cccc(CCCCC(=O)*)c1

Key:
[1] = test system: human retinal capillary endothelial cells (HRCECs); experiment: MTT proliferation inhibition on HRCECs; assay type: cell-based; conditions: 48 h; for A570 nm-A630 nm: mean±SD
Procedure: An MTT method was used to detect the inhibitory activity of the angiogenesis inhibitor polypeptide on proliferation of HRCECs. HRCECs were digested and collected with trypsin after being cultured in an incubator at 37° C. with 5% CO2 to a density of 90% or more. The cells were resuspended with a culture solution and counted under a microscope, the cell concentration was adjusted to 3.0×10^4 cells/mL, and the cell suspension was inoculated into a 96-well plate at 100 μL/well, and cultured overnight in an incubator at 37° C. with 5% CO2. After the cells were completely adhered to the wall, cells with the addition of the angiogenesis inhibitor polypeptide were used as administration groups, cells with the addition of Avastin were used as a positive control group, and cells with the addition of culture solution without any drugs were used as a blank control group. The cells were diluted to respective predetermined concentrations with the culture solution. The diluent were added into 96-well plates respectively at 100 μL per well, and the cells were cultured at 37° C. for 48 h in an incubator with 5% CO2. 20 μL of 5 mg/mL MTT was added into each well of the 96-well plate, and the cultivation was continued for 4 h. The culture medium was removed, and 100 μL of DMSO was added to each well for dissolution. The absorbance was measured at a detection wavelength of 570 nm and a reference wavelength of 630 nm using a microplate reader, and the PIR was calculated by the formula as follows:
PIR (%)=1−administration group/negative group
The experiment was repeated independently three times. The results were expressed as mean±SD, and statistical T test was conducted. *P<0.05 indicates significant difference, and **P<0.01 indicates extremely significant difference.

[2] = test system: retinal neovascularization (OIR model); experiment: Retinal vessels in OIR mice; assay type: in vivo, C57/B16 mice; conditions: for Area of neovascular plexus (mm^2): dose 0.05 μM in the vitreous chamber on day 13, retinal vessels evaluated on day 17; for Inhibition rate (%): dose 0.05 μM in the vitreous chamber on day 13, retinal vessels evaluated on day 17, vs negative control
Source text: Establishment of an OIR model: Young mice and their mothers were exposed in a 75% hyperoxic environment from day 7 to day 12 after the birth of C57/B16 mice, which caused capillaries in their central retina to disappear rapidly. The mice were returned to the indoor air on day 12, retinal vessels exposed to hyperoxia quickly disappeared, causing extensive abnormal neoangiogenesis, and the central part of the retina remained largely avascular for a long time. After the blood vessels disappeared completely, the mice were injected with normal saline (a negative group), X1-X12, X13-X44, X45-X90 in the vitreous chamber on day 13 respectively, and retinal vessels were evaluated on day 17 ([…] of Texas red labeled tomato agglutinin was injected into the left ventricle to mark unclosed vessels and circulated for 5 min).

SMILES: C[C@H](NC(=O)CNC(=O)[C@H](CCCNC(=N)N)NC(=O)CCCCc1cccc(N2C(=O)C=CC2=O)c1)C(=O)N[C@@H](CC(=O)O)C(=O)N[C@@H](CCCNC(=N)N)C(=O)N[C@@H](C)C(=O)NCC(=O)NCC(=O)NCC(=O)NCC(=O)N[C@@H](CCCNC(=N)N)C(=O)NCC(=O)N[C@@H](CC(=O)O)C(=O)O [X28] (X46-RGADRAGGGGRGD-OH)
- Inhibition rate (%) ([1]; dose 0.05 μM): 48.58%*
- A570 nm-A630 nm ([1]; dose 0.05 μM): 0.6796 ± 0.03488
- Inhibition rate (%) ([1]; dose 0.1 μM): 52.72%**
- A570 nm-A630 nm ([1]; dose 0.1 μM): 0.6249 ± 0.09489
- Inhibition rate (%) ([1]; dose 0.2 μM): 69.71%*
- A570 nm-A630 nm ([1]; dose 0.2 μM): 0.4004 ± 0.02963
- Area of neovascular plexus (mm^2) [2]: 0.088 ± 0.004 mm^2
- Inhibition rate (%) [2]: 58.49%**

SMILES: C[C@H](NC(=O)CNC(=O)[C@H](CCCNC(=N)N)NC(=O)CCCCCc1cccc(N2C(=O)C=CC2=O)c1)C(=O)N[C@@H](CC(=O)O)C(=O)N[C@@H](CCCNC(=N)N)C(=O)N[C@@H](C)C(=O)NCC(=O)NCC(=O)NCC(=O)NCC(=O)N[C@@H](CCCNC(=N)N)C(=O)NCC(=O)N[C@@H](CC(=O)O)C(=O)O [X29] (X71-RGADRAGGGGRGD-OH)
- Inhibition rate (%) ([1]; dose 0.05 μM): 52.67%*
- A570 nm-A630 nm ([1]; dose 0.05 μM): 0.6256 ± 0.09549
- Inhibition rate (%) ([1]; dose 0.1 μM): 58.02%**
- A570 nm-A630 nm ([1]; dose 0.1 μM): 0.5549 ± 0.02011
- Inhibition rate (%) ([1]; dose 0.2 μM): 61.03%*
- A570 nm-A630 nm ([1]; dose 0.2 μM): 0.5151 ± 0.01135
- Area of neovascular plexus (mm^2) [2]: 0.109 ± 0.012 mm^2
- Inhibition rate (%) [2]: 48.58%*

SMILES: C[C@H](NC(=O)CNC(=O)[C@H](CCCNC(=N)N)NC(=O)CCCCCCc1cccc(N2C(=O)C=CC2=O)c1)C(=O)N[C@@H](CC(=O)O)C(=O)N[C@@H](CCCNC(=N)N)C(=O)N[C@@H](C)C(=O)NCC(=O)NCC(=O)NCC(=O)NCC(=O)N[C@@H](CCCNC(=N)N)C(=O)NCC(=O)N[C@@H](CC(=O)O)C(=O)O [X30] (X54-RGADRAGGGGRGD-OH)
- Inhibition rate (%) ([1]; dose 0.05 μM): 42.46%*
- A570 nm-A630 nm ([1]; dose 0.05 μM): 0.7605 ± 0.00513
- Inhibition rate (%) ([1]; dose 0.1 μM): 60.14%**
- A570 nm-A630 nm ([1]; dose 0.1 μM): 0.5268 ± 0.06831
- Inhibition rate (%) ([1]; dose 0.2 μM): 65.82%*
- A570 nm-A630 nm ([1]; dose 0.2 μM): 0.4517 ± 0.03378
- Area of neovascular plexus (mm^2) [2]: 0.118 ± 0.012 mm^2
- Inhibition rate (%) [2]: 44.34%*

SMILES: C[C@H](NC(=O)CNC(=O)[C@H](CCCNC(=N)N)NC(=O)CCCCCCCc1cccc(N2C(=O)C=CC2=O)c1)C(=O)N[C@@H](CC(=O)O)C(=O)N[C@@H](CCCNC(=N)N)C(=O)N[C@@H](C)C(=O)NCC(=O)NCC(=O)NCC(=O)NCC(=O)N[C@@H](CCCNC(=N)N)C(=O)NCC(=O)N[C@@H](CC(=O)O)C(=O)O [X31] (X66-RGADRAGGGGRGD-OH)
- Inhibition rate (%) ([1]; dose 0.05 μM): 41.92%*
- A570 nm-A630 nm ([1]; dose 0.05 μM): 0.7676 ± 0.04187
- Inhibition rate (%) ([1]; dose 0.1 μM): 45.65%**
- A570 nm-A630 nm ([1]; dose 0.1 μM): 0.7183 ± 0.03361
- Inhibition rate (%) ([1]; dose 0.2 μM): 63.50%*
- A570 nm-A630 nm ([1]; dose 0.2 μM): 0.4824 ± 0.04754
- Area of neovascular plexus (mm^2) [2]: 0.101 ± 0.013 mm^2
- Inhibition rate (%) [2]: 52.83%**

SMILES: C[C@H](NC(=O)CNC(=O)[C@H](CCCNC(=N)N)NC(=O)CCCCCCCCc1cccc(N2C(=O)C=CC2=O)c1)C(=O)N[C@@H](CC(=O)O)C(=O)N[C@@H](CCCNC(=N)N)C(=O)N[C@@H](C)C(=O)NCC(=O)NCC(=O)NCC(=O)NCC(=O)N[C@@H](CCCNC(=N)N)C(=O)NCC(=O)N[C@@H](CC(=O)O)C(=O)O [X32] (X59-RGADRAGGGGRGD-OH)
- Inhibition rate (%) ([1]; dose 0.05 μM): 52.91%*
- A570 nm-A630 nm ([1]; dose 0.05 μM): 0.6224 ± 0.08338
- Inhibition rate (%) ([1]; dose 0.1 μM): 54.38%**
- A570 nm-A630 nm ([1]; dose 0.1 μM): 0.6030 ± 0.05575
- Inhibition rate (%) ([1]; dose 0.2 μM): 69.51%*
- A570 nm-A630 nm ([1]; dose 0.2 μM): 0.4030 ± 0.00097
- Area of neovascular plexus (mm^2) [2]: 0.096 ± 0.001 mm^2
- Inhibition rate (%) [2]: 54.72%**

SMILES: C[C@H](NC(=O)CNC(=O)[C@H](CCCNC(=N)N)NC(=O)CCCCCCCCCc1cccc(N2C(=O)C=CC2=O)c1)C(=O)N[C@@H](CC(=O)O)C(=O)N[C@@H](CCCNC(=N)N)C(=O)N[C@@H](C)C(=O)NCC(=O)NCC(=O)NCC(=O)NCC(=O)N[C@@H](CCCNC(=N)N)C(=O)NCC(=O)N[C@@H](CC(=O)O)C(=O)O [X33] (X64-RGADRAGGGGRGD-OH)
- Inhibition rate (%) ([1]; dose 0.05 μM): 42.66%*
- A570 nm-A630 nm ([1]; dose 0.05 μM): 0.7579 ± 0.03744
- Inhibition rate (%) ([1]; dose 0.1 μM): 46.86%**
- A570 nm-A630 nm ([1]; dose 0.1 μM): 0.7024 ± 0.04477
- Inhibition rate (%) ([1]; dose 0.2 μM): 62.24%*
- A570 nm-A630 nm ([1]; dose 0.2 μM): 0.4991 ± 0.04854
- Area of neovascular plexus (mm^2) [2]: 0.089 ± 0.029 mm^2
- Inhibition rate (%) [2]: 58.02%**

SMILES: C[C@H](NC(=O)CNC(=O)[C@H](CCCNC(=N)N)NC(=O)CCCCCCCCCCc1cccc(N2C(=O)C=CC2=O)c1)C(=O)N[C@@H](CC(=O)O)C(=O)N[C@@H](CCCNC(=N)N)C(=O)N[C@@H](C)C(=O)NCC(=O)NCC(=O)NCC(=O)NCC(=O)N[C@@H](CCCNC(=N)N)C(=O)NCC(=O)N[C@@H](CC(=O)O)C(=O)O [X34] (X74-RGADRAGGGGRGD-OH)
- Inhibition rate (%) ([1]; dose 0.05 μM): 50.55%*
- A570 nm-A630 nm ([1]; dose 0.05 μM): 0.6536 ± 0.08102
- Inhibition rate (%) ([1]; dose 0.1 μM): 51.43%**
- A570 nm-A630 nm ([1]; dose 0.1 μM): 0.6420 ± 0.08726
- Inhibition rate (%) ([1]; dose 0.2 μM): 59.92%*
- A570 nm-A630 nm ([1]; dose 0.2 μM): 0.5298 ± 0.07541
- Area of neovascular plexus (mm^2) [2]: 0.120 ± 0.014 mm^2
- Inhibition rate (%) [2]: 43.40%*

SMILES: C[C@H](NC(=O)CNC(=O)[C@H](CCCNC(=N)N)NC(=O)CCCCCCCCCCCc1cccc(N2C(=O)C=CC2=O)c1)C(=O)N[C@@H](CC(=O)O)C(=O)N[C@@H](CCCNC(=N)N)C(=O)N[C@@H](C)C(=O)NCC(=O)NCC(=O)NCC(=O)NCC(=O)N[C@@H](CCCNC(=N)N)C(=O)NCC(=O)N[C@@H](CC(=O)O)C(=O)O [X35] (X58-RGADRAGGGGRGD-OH)
- Inhibition rate (%) ([1]; dose 0.05 μM): 43.91%*
- A570 nm-A630 nm ([1]; dose 0.05 μM): 0.7413 ± 0.08995
- Inhibition rate (%) ([1]; dose 0.1 μM): 56.72%**
- A570 nm-A630 nm ([1]; dose 0.1 μM): 0.5720 ± 0.01284
- Inhibition rate (%) ([1]; dose 0.2 μM): 57.45%*
- A570 nm-A630 nm ([1]; dose 0.2 μM): 0.5624 ± 0.01279
- Area of neovascular plexus (mm^2) [2]: 0.101 ± 0.005 mm^2
- Inhibition rate (%) [2]: 52.36%**

SMILES: C[C@H](NC(=O)CNC(=O)[C@H](CCCNC(=N)N)NC(=O)CCCCCCCCCCCCc1cccc(N2C(=O)C=CC2=O)c1)C(=O)N[C@@H](CC(=O)O)C(=O)N[C@@H](CCCNC(=N)N)C(=O)N[C@@H](C)C(=O)NCC(=O)NCC(=O)NCC(=O)NCC(=O)N[C@@H](CCCNC(=N)N)C(=O)NCC(=O)N[C@@H](CC(=O)O)C(=O)O [X36] (X65-RGADRAGGGGRGD-OH)
- Inhibition rate (%) ([1]; dose 0.05 μM): 55.25%*
- A570 nm-A630 nm ([1]; dose 0.05 μM): 0.5915 ± 0.05135
- Inhibition rate (%) ([1]; dose 0.1 μM): 60.38%**
- A570 nm-A630 nm ([1]; dose 0.1 μM): 0.5237 ± 0.03194
- Inhibition rate (%) ([1]; dose 0.2 μM): 64.71%*
- A570 nm-A630 nm ([1]; dose 0.2 μM): 0.4664 ± 0.03733
- Area of neovascular plexus (mm^2) [2]: 0.084 ± 0.009 mm^2
- Inhibition rate (%) [2]: 60.38%**
